One compound from ChEMBL document CHEMBL4715784, “Screening and biological evaluation of a novel STAT3 signaling pathway inhibitor against cancer” (Bioorg Med Chem Lett, 2016) can be followed below.

Each structure is given as a SMILES string. Active and inactive are the calls of the source. The calls are words filed in the database; no cut-off is given here.

The target in experiment [1] is T1, Signal transducer and activator of transcription 3 (Homo sapiens, UniProt P40763). Kind of experiment: Binding affinity to STAT3 (unknown origin) expressed in Escherichia coli by CM5 sensor chip immobilization based SPR assay. A general note: In SPR one partner is held on a chip, and binding of the other changes the refractive index at the surface.
T1 sequence (P40763 whole entry): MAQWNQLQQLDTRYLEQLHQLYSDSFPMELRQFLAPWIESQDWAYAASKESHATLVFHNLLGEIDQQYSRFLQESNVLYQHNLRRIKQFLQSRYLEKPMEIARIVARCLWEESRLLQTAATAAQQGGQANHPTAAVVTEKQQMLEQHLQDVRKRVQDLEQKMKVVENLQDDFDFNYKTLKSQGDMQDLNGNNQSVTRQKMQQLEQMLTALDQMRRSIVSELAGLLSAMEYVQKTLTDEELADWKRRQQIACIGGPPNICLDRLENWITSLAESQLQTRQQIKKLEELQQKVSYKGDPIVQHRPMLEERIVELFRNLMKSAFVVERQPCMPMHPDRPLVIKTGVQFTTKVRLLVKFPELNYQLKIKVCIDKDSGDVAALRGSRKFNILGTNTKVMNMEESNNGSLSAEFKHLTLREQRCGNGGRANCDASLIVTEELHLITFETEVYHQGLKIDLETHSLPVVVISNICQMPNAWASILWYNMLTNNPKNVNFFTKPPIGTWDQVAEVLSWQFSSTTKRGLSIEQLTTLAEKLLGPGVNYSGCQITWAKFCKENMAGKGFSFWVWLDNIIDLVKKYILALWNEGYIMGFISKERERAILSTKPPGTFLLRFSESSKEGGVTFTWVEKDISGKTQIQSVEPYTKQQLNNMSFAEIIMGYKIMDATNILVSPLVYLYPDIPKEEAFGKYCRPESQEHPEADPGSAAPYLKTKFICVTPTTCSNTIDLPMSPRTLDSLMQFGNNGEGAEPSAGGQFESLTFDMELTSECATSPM
A short description of experiment [2]: Binding affinity to STAT3 R595G mutant (unknown origin) expressed in Escherichia coli by CM5 sensor chip immobilization based SPR assay. Also noted: species or system Homo sapiens.
For the next experiment, the system named is MCF7. The experiment is described as follows: Antiproliferative activity against human MCF7 cells assessed as reduction in cell growth incubated for 24 hrs by CCK8 assay. Format: functional, cell-based. As to conditions: MCF7, 24 h. (Tetrazolium assays rely on reduction of a dye to a coloured formazan, in cell work by metabolically active cells.)
Another experiment deals with DU-145. The experiment is described as follows: Antiproliferative activity against human DU-145 cells harboring active STAT3 assessed as reduction in cell growth incubated for 24 hrs by CCK8 assay. Format: functional, cell-based. As to conditions: DU-145, 24 h.
For a further experiment, the species on record is Homo sapiens. Kind of experiment: Selectivity ratio of Kd for STAT3 I643S/Q635G mutant (unknown origin) expressed in Escherichia coli to Kd for wild type STAT3 (unknown origin) expressed in Escherichia coli by CM5 sensor chip immobilization based SPR assay.
Experiment [3] relates to MDA-MB-468. Kind of experiment: Antiproliferative activity against human MDA-MB-468 cells harboring active STAT3 assessed as reduction in cell growth incubated for 24 hrs by CCK8 assay. As to conditions: MDA-MB-468, 24 h. Format: functional, cell-based.
Experiment [4] relates to MDA-MB-468. The experiment is described as follows: Effect on STAT3 expression in human MDA-MB-468 cells at 1 to 30 uM incubated for 24 hrs by Western blot analysis. Format: functional, cell-based. As to conditions: dose 1-30 µM.
The target in experiment [5] is T1, Signal transducer and activator of transcription 3. Kind of experiment: Displacement of fluorescein-labeled pYLPQTV-NH2 from STAT3 SH2 domain (unknown origin) by fluorescence polarization assay. On the technique in general: Fluorescence polarisation rises when a labelled molecule tumbles more slowly, as on binding a larger partner.
The target is the same in experiment [6]. Kind of experiment: Inhibition of STAT3 in human MDA-MB-468 cells assessed as reduction in Bcl-XL expression at 1 to 30 uM incubated for 24 hrs by Western blot analysis. Format: cell-based. As to conditions: dose 1-30 µM.
A short description of experiment [7]: Binding affinity to STAT3 K591A/S611G mutant (unknown origin) expressed in Escherichia coli by CM5 sensor chip immobilization based SPR assay. Also noted: species or system Homo sapiens.
The target in experiment [8] is T2, Signal transducer and activator of transcription 5A (Homo sapiens) (UniProt P42229).
T2 sequence (whole entry): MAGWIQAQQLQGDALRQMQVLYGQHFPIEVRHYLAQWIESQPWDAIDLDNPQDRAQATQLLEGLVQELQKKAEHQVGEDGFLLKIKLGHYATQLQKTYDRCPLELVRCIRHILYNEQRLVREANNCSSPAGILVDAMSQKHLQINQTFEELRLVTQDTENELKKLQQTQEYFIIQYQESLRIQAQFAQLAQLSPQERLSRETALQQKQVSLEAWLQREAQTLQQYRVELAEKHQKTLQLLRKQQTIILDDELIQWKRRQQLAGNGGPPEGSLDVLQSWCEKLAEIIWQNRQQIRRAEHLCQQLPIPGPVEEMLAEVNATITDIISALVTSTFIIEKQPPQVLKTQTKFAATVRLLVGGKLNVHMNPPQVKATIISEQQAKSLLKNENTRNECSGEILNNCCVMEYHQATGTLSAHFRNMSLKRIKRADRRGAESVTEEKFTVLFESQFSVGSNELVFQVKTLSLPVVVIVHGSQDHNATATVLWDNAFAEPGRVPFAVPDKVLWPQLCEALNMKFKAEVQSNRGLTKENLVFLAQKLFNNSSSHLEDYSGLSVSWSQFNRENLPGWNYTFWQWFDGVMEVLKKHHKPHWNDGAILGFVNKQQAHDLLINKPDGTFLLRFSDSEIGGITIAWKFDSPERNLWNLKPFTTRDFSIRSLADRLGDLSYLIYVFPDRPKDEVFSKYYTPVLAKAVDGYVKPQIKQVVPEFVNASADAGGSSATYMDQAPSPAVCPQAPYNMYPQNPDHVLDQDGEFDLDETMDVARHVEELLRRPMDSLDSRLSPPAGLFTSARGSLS
The experiment is described as follows: Inhibition of STAT5 in human MDA-MB-468 cells assessed as reduction in STAT5 phosphorylation at 1 to 30 uM incubated for 24 hrs by Western blot analysis. Format: cell-based. As to conditions: dose 1-30 µM.

Experiment [9] deals with MDA-MB-468. The experiment is described as follows: Antimigratory activity against human MDA-MB-468 cells assessed as reduction in cell migration incubated for 24 hrs by transwell study based analysis. Format: functional. As to conditions: dose 10-30 µM.
Experiment [10] can be described thus: Binding affinity to STAT3 I643S/Q635G mutant (unknown origin) expressed in Escherichia coli by CM5 sensor chip immobilization based SPR assay. The arrangement: species or system Homo sapiens.
A further experiment relates to MDA-MB-231. The experiment is described as follows: Antiproliferative activity against human MDA-MB-231 cells harboring active STAT3 assessed as reduction in cell growth incubated for 24 hrs by CCK8 assay. Format: functional, cell-based. As to conditions: MDA-MB-231, 24 h.
Experiment [11] can be described thus: Binding affinity to STAT3 K591A mutant (unknown origin) expressed in Escherichia coli by CM5 sensor chip immobilization based SPR assay. Also noted: species or system Homo sapiens.
The target in experiment [12] is T1, Signal transducer and activator of transcription 3. Kind of experiment: Inhibition of STAT3 in human MDA-MB-468 cells assessed as reduction in STAT3 Y705 residue phosphorylation incubated for 24 hrs by Western blot analysis. Format: cell-based. As to conditions: dose 1-30 µM.
Experiment [13] shares this target. Kind of experiment: Inhibition of STAT3-dependent transcriptional activity in human HeLa cells transfected with p-Luc-TKS3 assessed as reduction in luciferase expression incubated for 24 hrs by dual luciferase reporter gene assay. Format: cell-based.
Experiment [14] concerns the target T3, Signal transducer and activator of transcription 1-alpha/beta (Homo sapiens) (UniProt P42224).
T3 sequence (whole entry): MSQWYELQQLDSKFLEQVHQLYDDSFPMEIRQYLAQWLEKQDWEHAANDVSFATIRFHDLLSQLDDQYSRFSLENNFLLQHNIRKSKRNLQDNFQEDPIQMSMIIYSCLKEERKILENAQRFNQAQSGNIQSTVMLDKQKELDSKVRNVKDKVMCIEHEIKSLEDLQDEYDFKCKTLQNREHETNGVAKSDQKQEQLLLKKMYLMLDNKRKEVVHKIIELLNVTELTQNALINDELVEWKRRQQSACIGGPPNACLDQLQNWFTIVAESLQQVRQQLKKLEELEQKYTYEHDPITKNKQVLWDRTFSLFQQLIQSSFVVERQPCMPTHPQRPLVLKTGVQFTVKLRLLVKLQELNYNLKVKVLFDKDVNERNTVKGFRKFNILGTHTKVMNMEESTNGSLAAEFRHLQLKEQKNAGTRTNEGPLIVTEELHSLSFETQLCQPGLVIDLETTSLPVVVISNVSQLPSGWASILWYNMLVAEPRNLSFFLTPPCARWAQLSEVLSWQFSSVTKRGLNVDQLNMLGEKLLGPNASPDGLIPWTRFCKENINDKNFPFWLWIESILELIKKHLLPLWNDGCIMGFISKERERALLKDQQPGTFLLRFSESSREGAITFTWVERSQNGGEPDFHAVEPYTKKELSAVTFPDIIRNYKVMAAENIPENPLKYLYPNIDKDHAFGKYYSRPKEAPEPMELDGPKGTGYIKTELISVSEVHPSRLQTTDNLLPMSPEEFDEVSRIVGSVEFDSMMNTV
The experiment is described as follows: Inhibition of STAT1 in human MDA-MB-468 cells assessed as reduction in STAT1 phosphorylation at 1 to 30 uM incubated for 24 hrs by Western blot analysis. Format: cell-based. As to conditions: dose 1-30 µM.

The nature of experiment [15]: Binding affinity to STAT3 C712G mutant (unknown origin) expressed in Escherichia coli by CM5 sensor chip immobilization based SPR assay. Also noted: species or system Homo sapiens.

As a reminder, the Kd is the concentration at which binding is half-saturated. Lower therefore signals tighter binding. Usually IC50 stands for the concentration that inhibits the measured activity by half. `O=C1c2ccccc2C(=O)c2cc(S(=O)(=O)Nc3ccc(O)cc3)ccc21`: the Activity result (in experiment [1]; in the experiment with MDA-MB-468 [9]) was “Dose-dependent effect” in each case. Also, the dissociation constant (Kd) was 4.59 µM in [1]; 6.53 µM in [2]; 4.8 µM in experiment [7]; 22.7 µM in [10]; 3.84 µM in [11]; 18.5 µM in [15]. The IC50 in the experiment with MCF7 came to 134 µM; in the experiment with DU-145, 63.8 µM; in the experiment on MDA-MB-468 [3], 5.1 µM; in the experiment with MDA-MB-231 it was 13.8 µM; in experiment [13] it was 12.5 µM. For the same compound, in the experiment listed under Homo sapiens, the Selectivity ratio was found to be 4. Moreover, the outcome with MDA-MB-468 [4] was inactive. Moreover, the inhibition result in [5], in [6], in experiment [8] and in experiment [14] was “Active” in each case. Also, the inhibition entry in [12] and in [13] was “Dose-dependent effect” throughout.
